Measured values from BindingDB's records for doi:10.1021/acs.biochem.5b00135 (Northwestern University, 2015).

target: T1, Nitric oxide synthase, inducible (Mus musculus, UniProt P29477); assay: Hemoglobin Assay; details: pH 7.4
T1 sequence (P29477 whole entry): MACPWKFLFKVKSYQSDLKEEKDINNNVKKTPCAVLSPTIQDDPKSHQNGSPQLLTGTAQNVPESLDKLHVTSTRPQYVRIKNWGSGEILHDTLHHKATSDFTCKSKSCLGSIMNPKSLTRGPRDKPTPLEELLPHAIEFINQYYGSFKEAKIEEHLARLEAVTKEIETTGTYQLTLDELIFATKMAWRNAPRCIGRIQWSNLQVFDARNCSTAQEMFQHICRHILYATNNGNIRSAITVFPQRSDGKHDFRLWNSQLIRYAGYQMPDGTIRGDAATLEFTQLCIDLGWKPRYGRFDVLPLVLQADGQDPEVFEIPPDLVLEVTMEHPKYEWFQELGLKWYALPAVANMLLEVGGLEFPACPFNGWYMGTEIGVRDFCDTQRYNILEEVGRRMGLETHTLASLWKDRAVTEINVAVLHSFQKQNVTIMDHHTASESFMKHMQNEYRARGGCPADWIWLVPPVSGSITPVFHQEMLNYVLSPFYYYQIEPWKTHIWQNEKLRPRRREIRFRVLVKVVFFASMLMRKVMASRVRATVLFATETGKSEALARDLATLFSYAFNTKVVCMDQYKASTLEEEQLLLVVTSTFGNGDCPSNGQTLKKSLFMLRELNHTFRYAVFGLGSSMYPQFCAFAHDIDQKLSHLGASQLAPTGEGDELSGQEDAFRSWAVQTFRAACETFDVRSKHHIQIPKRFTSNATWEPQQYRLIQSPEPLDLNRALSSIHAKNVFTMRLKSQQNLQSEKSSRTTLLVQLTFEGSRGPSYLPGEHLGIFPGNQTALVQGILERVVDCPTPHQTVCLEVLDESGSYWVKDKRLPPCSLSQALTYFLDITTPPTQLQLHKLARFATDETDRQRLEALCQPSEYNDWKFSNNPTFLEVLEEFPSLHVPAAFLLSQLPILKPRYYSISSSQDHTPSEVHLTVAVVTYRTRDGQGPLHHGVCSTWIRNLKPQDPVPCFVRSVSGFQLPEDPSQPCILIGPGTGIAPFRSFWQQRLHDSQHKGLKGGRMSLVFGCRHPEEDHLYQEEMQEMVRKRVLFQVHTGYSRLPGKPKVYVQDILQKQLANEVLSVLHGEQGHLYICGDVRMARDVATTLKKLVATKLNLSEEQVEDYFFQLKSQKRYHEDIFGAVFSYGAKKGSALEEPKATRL
Method: The final volume was adjusted to 600 μL with 100 mM Hepes buffer (pH 7.4).

SMILES | IC50 | Ki
CCCC(=N)NCCC[C@H](N)C(=O)O [(S)-2-Amino-5-butyrimidamidopentanoic acid (9)] | 19.1 µM | 8.61 µM
CC(C)C(=N)NCCC[C@H](N)C(=O)O [(S)-2-Amino-5-isobutyrimidamidopentanoic acid (10)] | 138 µM | 65.2 µM
CC(C)(C)C(=N)NCCC[C@H](N)C(=O)O [(S)-2-Amino-5-pivalimidamidopentanoic acid (12)] | 323 µM | 146 µM
CCC(=N)NCCC[C@H](N)C(=O)O [(S)-2-Amino-5-propionimidamidopentanoic acid (8)] | 16.1 µM | 7.25 µM

Molecules with a lower IC50, results first:

IC50 | Ki | SMILES
0.4 µM | 0.18 µM | N=CNCCC[C@H](N)C(=O)O [(S)-2-Amino-5-formimidamidopentanoic acid (7)]
8.1 µM |  | CC(=N)NCCC[C@H](N)C(=O)O [(S)-5-Acetimidamido-2-aminopentanoic acid (4, L-NIO)]
